“Also recorded” adds a separate entry of the source. Where a SMILES comes first, the peptide text is derived from it.
Tests used:
BALB/c mice = assay: Acute Sytemic Toxicity Test (ISO 10993-11); type: in vivo; design: hematological parameters, AST, ALT, ALP levels and gross pathology: dose or concentration left out as unconfirmed
Procedure: Senolytic Peptides were evaluated for toxicity according to Acute Sytemic Toxicity Test (ISO 10993-11). This study was performed in strict accordance with the protocol approved by the TUBITAK-MAM Animal Ethics Committee. All the mice used in this study were of a BALB/c background at 8-12 weeks of age. All mice were kept in group housing until the start of the experiment after which they were placed in separate cages (5 mice per cage). […] Control and Senolytic Peptide (SEQ ID NO: 2) injected mice were sacrificed 24 hours later for pathological examination. […] Blood samples were subsequently collected for determination and analysis of hematological and biochemical parameters. Plasma alanine aminotransferase (ALT), aspartate aminotransferase (AST), alkaline phosphatase (ALP) activities and blood urea, glucose, triglyceride levels were determined, inter alia, full hematological parameters.

[1] = system: senescent and non-senescent WI-38 fibroblasts; type: cell-based, human; conditions: total doses 0 to 100 μM on 3 consecutive days, read after 7 days, listed as SEQ ID NO: 11
Procedure: WI-38 cells (ATCC # CCL-75, a diploid primary human fibroblast adherent cell line derived from fetal lung tissue) were treated with a chemotherapy agent, 100 nM Doxorubicin twice every other day to induce senescence. […] Later these cells were used for experiments comparing them to their non-Doxorubicin (non-senescent) treated counterparts. Senescent and non-senescent WI-38 fibroblasts were plated for XTT viability assays. 7000 senescent (obtained as described above) and 2000 non-senescent WI-38 fibroblasts were plated in 96-well plates incubated. The cells were treated with mock (PBS) or the Senolytic Peptide (SEQ ID NO: 11) at total doses ranging from 0 to 100 μM. The mock and peptide treatments were carried out for 3 consecutive days (24, 48 and 72 hours) after plating. After treatment period, the cells were incubated for 7 days until XTT-based viability was analyzed according to the manufacturer's instructions. […] The Senolytic Peptide (SEQ ID NO: 2) was ordered from Chinese Peptide Company with TFA removal.

Molecule	toxicity to the physical appearance of the mice (BALB/c mice; intravenous single injection, 1, 10, 50 and 100 mg/kg, within 24 hours)	hematological parameters, AST, ALT, ALP levels and gross pathology (BALB/c mice; intravenous single injection, 24 hours, even at higher doses)	viability of senescent vs non-senescent cells (XTT) [1]
N=C(N)NCCC[C@H](NC(=O)[C@H](CCCNC(=N)N)NC(=O)[C@H](CCCNC(=N)N)NC(=O)[C@H](CCC(N)=O)NC(=O)[C@H](CCCNC(=N)N)NC(=O)[C@H](CCCNC(=N)N)NC(=O)[C@H](CCCCN)NC(=O)[C@H](CCCCN)NC(=O)[C@H](CCCNC(=N)N)NC(=O)CNC(=O)[C@H](Cc1ccc(O)cc1)NC(=O)[C@H](CCCNC(=N)N)NC(=O)[C@H](CCCNC(=N)N)NC(=O)[C@H](CCCNC(=N)N)NC(=O)[C@H](CCC(N)=O)NC(=O)[C@H](CCCNC(=N)N)NC(=O)[C@H](CCCNC(=N)N)NC(=O)[C@H](CCCCN)NC(=O)[C@H](CCCCN)NC(=O)[C@H](CCCNC(=N)N)NC(=O)CNC(=O)[C@H](Cc1ccc(O)cc1)NC(=O)[C@H](CCCNC(=N)N)NC(=O)[C@H](CCCNC(=N)N)NC(=O)[C@H](CCCNC(=N)N)NC(=O)[C@H](CCC(N)=O)NC(=O)[C@H](CCCNC(=N)N)NC(=O)[C@H](CCCNC(=N)N)NC(=O)[C@H](CCCCN)NC(=O)[C@H](CCCCN)NC(=O)[C@H](CCCNC(=N)N)NC(=O)CNC(=O)[C@@H](N)Cc1ccc(O)cc1)C(=O)O [ID 2] (H-YGRKKRRQRRRYGRKKRRQRRRYGRKKRRQRRR-OH; N-terminus and C-terminus assumed)	No toxicity to the physical appearance of the mice was observed	no toxicity	–
TRQARRNRRRRWRERQR [ID 11]	–	–	selective decrease in the viability of senescent cells but not non-senescent cells; also recorded: selectively decreased the viability of senescent cells but not non-senescent cells
